# Like-named read-outs stand apart in the source and are kept apart here.
# Legend:
# [1] = Stability test (preservation of crystal, powder X-ray diffraction); type: physicochemical
# Experimental: Powder X-ray diffraction (permeation method) was measured by pulverizing a sample in an agate mortar, placing an appropriate amount thereof on a sample plate, and measuring diffraction peaks by changing the diffraction angle 2θ from 5° to 40°. The irradiate X ray used was copper Kα ray (CuKα ray), and tube voltage was set to […], tube electric current was set to 40 mA, step angle was set to 0.017°, and counting time was set to 0.56°/sec. The thermal analysis was performed by placing about 2 mg of a sample on an aluminum cell, and measuring differential scanning calorie (DSC) at a temperature rise rate of 10° C./min.
# The A crystal obtained in Example 12 was preserved under the conditions of 40° C./75% RH (relative humidity) and 40° C./90% RH (relative humidity) for 6 months each, and powder X-ray diffraction was measured. […] It was confirmed that A crystal is stable even after preservation for a long term under humidified conditions of 40° C./75% RH (relative humidity) and 40° C./90% RH (relative humidity).
# The HA crystal obtained in Example 11 was preserved for 2 weeks at 60° C., and then powder X-ray diffraction was measured. […] That is, a part of HA crystal is considered to undergo crystal transition to A crystal at 60° C.
# [2] = Absorbability test: plasma kinetics of compound IA after oral administration; type: in vivo; settings: male rats; for AUC0→∞ / Cmax / t1/2 / tmax / AUC(0-inf) / half-life: plasma compound IA
# Experimental: HA crystal and A crystal obtained in Examples 11 and 12 were orally administered to male rats respectively, and plasma kinetics of compound IA were evaluated.
# [3] = male, rat, plasma, po, 10 mg/kg
smiles,measurement,setting,value
Cc1ccc(C(=O)Nc2nc(-c3ccco3)c(C(=O)C3CCOCC3)s2)cn1 [A crystal],change of powder X-ray diffraction pattern after preservation,"[1]; 40° C./75% RH, 6 months",did not show any change
same,change of powder X-ray diffraction pattern after preservation,"[1]; 40° C./90% RH, 6 months",did not show any change
same,bioavailability (in words),[2],good bioavailability
same,"rise of plasma concentration, A crystal compared with HA crystal",[2],increased more rapidly
same,BA,[2]; dose 1 mg/kg,53.7%
same,AUC0→∞,[2]; dose 1 mg/kg,5350 ng·h/mL
same,Cmax,[2]; dose 1 mg/kg,1410 ± 270 ng/mL
same,t1/2,[2]; dose 1 mg/kg,2.26 ± 0.26 h
same,tmax,[2]; dose 1 mg/kg,1.00 ± 0.00 h
same,BA,[2]; dose 10 mg/kg,51.2%
same,AUC0→∞,[2]; dose 10 mg/kg,51000 ng·h/mL
same,Cmax,[2]; dose 10 mg/kg,11400 ± 1400 ng/mL
same,t1/2,[2]; dose 10 mg/kg,1.77 ± 0.09 h
same,tmax,[2]; dose 10 mg/kg,1.67 ± 0.58 h
Cc1ccc(C(=O)Nc2nc(-c3ccco3)c(C(=O)C3CCOCC3)s2)cn1 [HA crystal],change of powder X-ray diffraction pattern after preservation,"[1]; 60° C., 2 weeks",show a diffraction peak characteristic of A crystal
same,bioavailability (in words),[2],good bioavailability
same,BA,[2]; dose 1 mg/kg,59.5%
same,BA,[2]; dose 10 mg/kg,56.8%
same,Cmax,"[2]; male, rat, plasma, po, 1 mg/kg, dose 1 mg/kg, read-out: Cmax",1500 ± 100 ng/mL
same,tmax,"[2]; male, rat, plasma, po, 1 mg/kg, dose 1 mg/kg, read-out: tmax",1.33 ± 0.58 h
same,AUC(0-inf),"[2]; male, rat, plasma, po, 1 mg/kg",5930 ng·h/mL
same,half-life,"[2]; male, rat, plasma, po, 1 mg/kg",2.08 ± 0.13 h
same,Cmax,"[2]; male, rat, plasma, po, 10 mg/kg, dose 10 mg/kg, read-out: Cmax",10900 ± 800 ng/mL
same,tmax,"[2]; male, rat, plasma, po, 10 mg/kg, dose 10 mg/kg, read-out: tmax",2 h
same,AUC(0-inf),[2]; [3],56600 ng·h/mL
same,half-life,[2]; [3],3.43 ± 1.14 h

# Reference: patent publication US10894790B2, “Production method of thiazole derivative” (KYOWA KIRIN CO., LTD., priority 2015, dated 2021)
